Measurements published in patent US8680012B2, “4-phenyl-pyrane-3,5-diones,4-phenyl-thiopyrane-3,6-diones and cyclohexanetriones as novel herbicides” (Syngenta Crop Protection LLC, priority 2006, dated 2014).

test system: Alopecurus myosuroides (ALOMY); test: Example B pre-emergence herbicidal activity, glasshouse pot test; assay type: in vivo; conditions: 312 h, rate 250 g/ha, evaluated after 13 days, read-out: Pre-emergence activity ALOMY (100=total damage to plant; 0=no damage to plant)
In short: (§1)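 One day (pre) or eight days (post) after sowing, pots received a spray of test compound formulated in acetone/water 50:50 with 0.5% Tween 20; plants were then kept under controlled glasshouse conditions with watering twice daily and assessed for damage (0–100) at 13 days.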

First: CCc1ccc(-c2ccc(Cl)nc2)cc1C1=C(OC(C)=O)C(C)(C)OC(C)(C)C1=O [Compound D-22]
Second: CCc1ccc(-c2ccc(Cl)cc2Cl)cc1C1=C(OC(C)=O)C(C)(C)OC(C)(C)C1=O [Compound D-23]
The pest or weed control at 250 g/ha of the first is higher: 60% for the first, 0% for the second.

Going from `CCc1ccc(-c2ccc(Cl)cc2Cl)cc1C1=C(OC(=O)COC)C(C)(C)OC(C)(C)C1=O` [Compound D-24] to `CCC(=O)OC1=C(c2cc(-c3ccc(Cl)cc3Cl)ccc2CC)C(=O)C(C)(C)OC1(C)C` [Compound D-25], the pest or weed control at 250 g/ha rises from 0% to 20%.

First: CC(=O)OC1=C(c2cc(-c3ccc(Cl)cn3)ccc2C)C(=O)C(C)(C)OC1(C)C [Compound D-28]
Second: CCc1ccc(-n2cnc(Cl)c2Cl)cc1C1=C(OC(=O)OC)C(C)(C)OC(C)(C)C1=O [Compound D-32]
The pest or weed control at 250 g/ha of the first is higher: 30% for the first, 20% for the second.

test system: Amaranthus retroflexus (AMARE); test: as above; assay type: in vivo; conditions: 312 h, rate 250 g/ha, evaluated after 13 days, read-out: Pre-emergence activity AMARE (100=total damage to plant; 0=no damage to plant)
In short: as §1

`CCc1ccc(-c2ccc(Cl)nc2)cc1C1=C(OC(C)=O)C(C)(C)OC(C)(C)C1=O` [Compound D-22] and `CCc1ccc(-c2ccc(Cl)cc2Cl)cc1C1=C(OC(C)=O)C(C)(C)OC(C)(C)C1=O` [Compound D-23] are the same in pest or weed control at 250 g/ha: 0% for the first, 0% for the second.

First: CCc1ccc(-c2ccc(Cl)cc2Cl)cc1C1=C(OC(=O)COC)C(C)(C)OC(C)(C)C1=O [Compound D-24]
Second: CCC(=O)OC1=C(c2cc(-c3ccc(Cl)cc3Cl)ccc2CC)C(=O)C(C)(C)OC1(C)C [Compound D-25]
The pest or weed control at 250 g/ha of the first is higher: 20% for the first, 0% for the second.

`CC(=O)OC1=C(c2cc(-c3ccc(Cl)cn3)ccc2C)C(=O)C(C)(C)OC1(C)C` [Compound D-28] and `CCc1ccc(-n2cnc(Cl)c2Cl)cc1C1=C(OC(=O)OC)C(C)(C)OC(C)(C)C1=O` [Compound D-32] are the same in pest or weed control at 250 g/ha: 0% for the first, 0% for the second.

test system: Avena fatua (AVEFA); test: as above; assay type: in vivo; conditions: 312 h, rate 250 g/ha, evaluated after 13 days, read-out: Pre-emergence activity AVEFA (100=total damage to plant; 0=no damage to plant)
In short: as §1

Compared with `CCc1ccc(-c2ccc(Cl)nc2)cc1C1=C(OC(C)=O)C(C)(C)OC(C)(C)C1=O` [Compound D-22], `CCc1ccc(-c2ccc(Cl)cc2Cl)cc1C1=C(OC(C)=O)C(C)(C)OC(C)(C)C1=O` [Compound D-23] is lower in pest or weed control at 250 g/ha: 50% for the first, 0% for the second.

`CCc1ccc(-c2ccc(Cl)cc2Cl)cc1C1=C(OC(=O)COC)C(C)(C)OC(C)(C)C1=O` [Compound D-24] and `CCC(=O)OC1=C(c2cc(-c3ccc(Cl)cc3Cl)ccc2CC)C(=O)C(C)(C)OC1(C)C` [Compound D-25] are the same in pest or weed control at 250 g/ha: 0% for the first, 0% for the second.

First: CC(=O)OC1=C(c2cc(-c3ccc(Cl)cn3)ccc2C)C(=O)C(C)(C)OC1(C)C [Compound D-28]
Second: CCc1ccc(-n2cnc(Cl)c2Cl)cc1C1=C(OC(=O)OC)C(C)(C)OC(C)(C)C1=O [Compound D-32]
The pest or weed control at 250 g/ha of the first is lower: 40% for the first, 80% for the second.

test system: Echinochloa crus-galli (ECHCG); test: as above; assay type: in vivo; conditions: 312 h, rate 250 g/ha, evaluated after 13 days, read-out: Pre-emergence activity ECHCG (100=total damage to plant; 0=no damage to plant)
In short: as §1

`CCc1ccc(-c2ccc(Cl)nc2)cc1C1=C(OC(C)=O)C(C)(C)OC(C)(C)C1=O` [Compound D-22] and `CCc1ccc(-c2ccc(Cl)cc2Cl)cc1C1=C(OC(C)=O)C(C)(C)OC(C)(C)C1=O` [Compound D-23] are the same in pest or weed control at 250 g/ha: 100% for the first, 100% for the second.

Compared with `CCc1ccc(-c2ccc(Cl)cc2Cl)cc1C1=C(OC(=O)COC)C(C)(C)OC(C)(C)C1=O` [Compound D-24], `CCC(=O)OC1=C(c2cc(-c3ccc(Cl)cc3Cl)ccc2CC)C(=O)C(C)(C)OC1(C)C` [Compound D-25] is lower in pest or weed control at 250 g/ha: 100% for the first, 90% for the second.

Going from `CC(=O)OC1=C(c2cc(-c3ccc(Cl)cn3)ccc2C)C(=O)C(C)(C)OC1(C)C` [Compound D-28] to `CCc1ccc(-n2cnc(Cl)c2Cl)cc1C1=C(OC(=O)OC)C(C)(C)OC(C)(C)C1=O` [Compound D-32], the pest or weed control at 250 g/ha rises from 20% to 60%.

test system: Setaria faberi (SETFA); test: as above; assay type: in vivo; conditions: 312 h, rate 250 g/ha, evaluated after 13 days, read-out: Pre-emergence activity SETFA (100=total damage to plant; 0=no damage to plant)
In short: as §1

Going from `CCc1ccc(-c2ccc(Cl)nc2)cc1C1=C(OC(C)=O)C(C)(C)OC(C)(C)C1=O` [Compound D-22] to `CCc1ccc(-c2ccc(Cl)cc2Cl)cc1C1=C(OC(C)=O)C(C)(C)OC(C)(C)C1=O` [Compound D-23], the pest or weed control at 250 g/ha falls from 100% to 90%.

`CCc1ccc(-c2ccc(Cl)cc2Cl)cc1C1=C(OC(=O)COC)C(C)(C)OC(C)(C)C1=O` [Compound D-24] and `CCC(=O)OC1=C(c2cc(-c3ccc(Cl)cc3Cl)ccc2CC)C(=O)C(C)(C)OC1(C)C` [Compound D-25] are the same in pest or weed control at 250 g/ha: 90% for the first, 90% for the second.

`CC(=O)OC1=C(c2cc(-c3ccc(Cl)cn3)ccc2C)C(=O)C(C)(C)OC1(C)C` [Compound D-28] and `CCc1ccc(-n2cnc(Cl)c2Cl)cc1C1=C(OC(=O)OC)C(C)(C)OC(C)(C)C1=O` [Compound D-32] are the same in pest or weed control at 250 g/ha: 80% for the first, 80% for the second.

test system: Alopecurus myosuroides (ALOMY); test: Example B post-emergence herbicidal activity, glasshouse pot test; assay type: in vivo; conditions: 312 h, rate 250 g/ha, evaluated after 13 days, read-out: Post-emergence activity ALOMY (100=total damage to plant; 0=no damage to plant)
In short: as §1

First: CCc1ccc(-c2ccc(Cl)nc2)cc1C1=C(OC(C)=O)C(C)(C)OC(C)(C)C1=O [Compound D-22]
Second: CCc1ccc(-c2ccc(Cl)cc2Cl)cc1C1=C(OC(C)=O)C(C)(C)OC(C)(C)C1=O [Compound D-23]
The pest or weed control at 250 g/ha of the first is higher: 90% for the first, 0% for the second.

`CCc1ccc(-c2ccc(Cl)cc2Cl)cc1C1=C(OC(=O)COC)C(C)(C)OC(C)(C)C1=O` [Compound D-24] and `CCC(=O)OC1=C(c2cc(-c3ccc(Cl)cc3Cl)ccc2CC)C(=O)C(C)(C)OC1(C)C` [Compound D-25] are the same in pest or weed control at 250 g/ha: 0% for the first, 0% for the second.

Compared with `CC(=O)OC1=C(c2cc(-c3ccc(Cl)cn3)ccc2C)C(=O)C(C)(C)OC1(C)C` [Compound D-28], `CCc1ccc(-n2cnc(Cl)c2Cl)cc1C1=C(OC(=O)OC)C(C)(C)OC(C)(C)C1=O` [Compound D-32] is lower in pest or weed control at 250 g/ha: 80% for the first, 50% for the second.

test system: Amaranthus retroflexus (AMARE); test: as above; assay type: in vivo; conditions: 312 h, rate 250 g/ha, evaluated after 13 days, read-out: Post-emergence activity AMARE (100=total damage to plant; 0=no damage to plant)
In short: as §1

`CCc1ccc(-c2ccc(Cl)nc2)cc1C1=C(OC(C)=O)C(C)(C)OC(C)(C)C1=O` [Compound D-22] and `CCc1ccc(-c2ccc(Cl)cc2Cl)cc1C1=C(OC(C)=O)C(C)(C)OC(C)(C)C1=O` [Compound D-23] are the same in pest or weed control at 250 g/ha: 0% for the first, 0% for the second.

`CCc1ccc(-c2ccc(Cl)cc2Cl)cc1C1=C(OC(=O)COC)C(C)(C)OC(C)(C)C1=O` [Compound D-24] and `CCC(=O)OC1=C(c2cc(-c3ccc(Cl)cc3Cl)ccc2CC)C(=O)C(C)(C)OC1(C)C` [Compound D-25] are the same in pest or weed control at 250 g/ha: 0% for the first, 0% for the second.

`CC(=O)OC1=C(c2cc(-c3ccc(Cl)cn3)ccc2C)C(=O)C(C)(C)OC1(C)C` [Compound D-28] and `CCc1ccc(-n2cnc(Cl)c2Cl)cc1C1=C(OC(=O)OC)C(C)(C)OC(C)(C)C1=O` [Compound D-32] are the same in pest or weed control at 250 g/ha: 0% for the first, 0% for the second.

test system: Avena fatua (AVEFA); test: as above; assay type: in vivo; conditions: 312 h, rate 250 g/ha, evaluated after 13 days, read-out: Post-emergence activity AVEFA (100=total damage to plant; 0=no damage to plant)
In short: as §1

Going from `CCc1ccc(-c2ccc(Cl)nc2)cc1C1=C(OC(C)=O)C(C)(C)OC(C)(C)C1=O` [Compound D-22] to `CCc1ccc(-c2ccc(Cl)cc2Cl)cc1C1=C(OC(C)=O)C(C)(C)OC(C)(C)C1=O` [Compound D-23], the pest or weed control at 250 g/ha falls from 100% to 0%.

`CCc1ccc(-c2ccc(Cl)cc2Cl)cc1C1=C(OC(=O)COC)C(C)(C)OC(C)(C)C1=O` [Compound D-24] and `CCC(=O)OC1=C(c2cc(-c3ccc(Cl)cc3Cl)ccc2CC)C(=O)C(C)(C)OC1(C)C` [Compound D-25] are the same in pest or weed control at 250 g/ha: 20% for the first, 20% for the second.

Compared with `CC(=O)OC1=C(c2cc(-c3ccc(Cl)cn3)ccc2C)C(=O)C(C)(C)OC1(C)C` [Compound D-28], `CCc1ccc(-n2cnc(Cl)c2Cl)cc1C1=C(OC(=O)OC)C(C)(C)OC(C)(C)C1=O` [Compound D-32] is higher in pest or weed control at 250 g/ha: 50% for the first, 70% for the second.

test system: Echinochloa crus-galli (ECHCG); test: as above; assay type: in vivo; conditions: 312 h, rate 250 g/ha, evaluated after 13 days, read-out: Post-emergence activity ECHCG (100=total damage to plant; 0=no damage to plant)
In short: as §1

`CCc1ccc(-c2ccc(Cl)nc2)cc1C1=C(OC(C)=O)C(C)(C)OC(C)(C)C1=O` [Compound D-22] and `CCc1ccc(-c2ccc(Cl)cc2Cl)cc1C1=C(OC(C)=O)C(C)(C)OC(C)(C)C1=O` [Compound D-23] are the same in pest or weed control at 250 g/ha: 100% for the first, 100% for the second.

First: CCc1ccc(-c2ccc(Cl)cc2Cl)cc1C1=C(OC(=O)COC)C(C)(C)OC(C)(C)C1=O [Compound D-24]
Second: CCC(=O)OC1=C(c2cc(-c3ccc(Cl)cc3Cl)ccc2CC)C(=O)C(C)(C)OC1(C)C [Compound D-25]
The pest or weed control at 250 g/ha of the first is higher: 100% for the first, 90% for the second.

`CC(=O)OC1=C(c2cc(-c3ccc(Cl)cn3)ccc2C)C(=O)C(C)(C)OC1(C)C` [Compound D-28] and `CCc1ccc(-n2cnc(Cl)c2Cl)cc1C1=C(OC(=O)OC)C(C)(C)OC(C)(C)C1=O` [Compound D-32] are the same in pest or weed control at 250 g/ha: 90% for the first, 90% for the second.

test system: Setaria faberi (SETFA); test: as above; assay type: in vivo; conditions: 312 h, rate 250 g/ha, evaluated after 13 days, read-out: Post-emergence activity SETFA (100=total damage to plant; 0=no damage to plant)
In short: as §1

Compared with `CCc1ccc(-c2ccc(Cl)nc2)cc1C1=C(OC(C)=O)C(C)(C)OC(C)(C)C1=O` [Compound D-22], `CCc1ccc(-c2ccc(Cl)cc2Cl)cc1C1=C(OC(C)=O)C(C)(C)OC(C)(C)C1=O` [Compound D-23] is lower in pest or weed control at 250 g/ha: 100% for the first, 90% for the second.

Going from `CCc1ccc(-c2ccc(Cl)cc2Cl)cc1C1=C(OC(=O)COC)C(C)(C)OC(C)(C)C1=O` [Compound D-24] to `CCC(=O)OC1=C(c2cc(-c3ccc(Cl)cc3Cl)ccc2CC)C(=O)C(C)(C)OC1(C)C` [Compound D-25], the pest or weed control at 250 g/ha falls from 100% to 90%.

`CC(=O)OC1=C(c2cc(-c3ccc(Cl)cn3)ccc2C)C(=O)C(C)(C)OC1(C)C` [Compound D-28] and `CCc1ccc(-n2cnc(Cl)c2Cl)cc1C1=C(OC(=O)OC)C(C)(C)OC(C)(C)C1=O` [Compound D-32] are the same in pest or weed control at 250 g/ha: 80% for the first, 80% for the second.
